# Results from US20100267743A1, “3-(PHENOXYPYRROLIDIN-3-YL-METHYL)HETEROARYL, 3-(PHENYLPYRROLIDIN-3-YLMETHOXY)HETEROARYL, AND 3-(HETEROARYLPYRROLIDIN-3-YLMETHOXY)HETEROARYL COMPOUNDS” (priority 2009, published 2010).
# What was measured:
# SERT [1] = target: T1, SERT (Homo sapiens, UniProt P31645); settings: cited from earlier work
# Target sequence in this assay (P31645 whole entry, species assumed): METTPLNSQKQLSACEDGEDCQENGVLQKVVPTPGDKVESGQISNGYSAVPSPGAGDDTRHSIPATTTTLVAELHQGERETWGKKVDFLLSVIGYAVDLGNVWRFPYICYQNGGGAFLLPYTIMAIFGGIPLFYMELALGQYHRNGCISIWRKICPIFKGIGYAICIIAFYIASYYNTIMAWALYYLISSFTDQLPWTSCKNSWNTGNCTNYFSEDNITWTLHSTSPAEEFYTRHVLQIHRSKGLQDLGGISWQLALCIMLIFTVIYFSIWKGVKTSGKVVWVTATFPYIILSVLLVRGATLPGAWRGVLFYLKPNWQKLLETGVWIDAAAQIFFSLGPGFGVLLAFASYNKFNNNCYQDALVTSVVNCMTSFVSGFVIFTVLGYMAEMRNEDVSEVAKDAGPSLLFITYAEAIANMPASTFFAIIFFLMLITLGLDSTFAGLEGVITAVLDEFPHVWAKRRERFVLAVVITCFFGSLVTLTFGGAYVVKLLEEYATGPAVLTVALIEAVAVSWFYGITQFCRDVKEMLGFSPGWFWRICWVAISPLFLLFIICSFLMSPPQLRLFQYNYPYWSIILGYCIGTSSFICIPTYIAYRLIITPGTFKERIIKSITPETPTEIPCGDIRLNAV
# NET [2] = target: T2, NET (Homo sapiens, UniProt P23975); settings: cited from earlier work
# NET [3] = target: T2, NET; experiment: hNET radioligand binding assay (3H-nisoxetine); set-up: expressed in transfected cells; host or cells: HEK-293; settings: hNET membranes (HEK-293), 1.0 nM 3H-nisoxetine; for Ki: read-out: NET pKi (converted)
# How it was run: (§1)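 Membranes came from HEK-293 cells stably expressing hSERT (0.5 μg protein) or hNET (1 μg), with 3H-citalopram or 3H-nisoxetine respectively. Incubation was 60 min at 22° C in Tris buffer with 120 mM NaCl and 5 mM KCl, pH 7.4, followed by filtration and scintillation counting. pKi was derived by Cheng-Prusoff from IC50 and saturation-derived Kd.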
# SERT [4] = target: T1, SERT; experiment: hSERT radioligand binding assay (3H-citalopram); set-up: expressed in transfected cells; host or cells: HEK-293; settings: hSERT membranes (HEK-293), 1.0 nM 3H-citalopram; for Ki: read-out: SERT pKi (converted)
# How it was run: as §1
# Target sequence in this assay (P31645 whole entry): as the sequence (P31645 whole entry, species assumed) above
# T2 sequence (P23975 whole entry): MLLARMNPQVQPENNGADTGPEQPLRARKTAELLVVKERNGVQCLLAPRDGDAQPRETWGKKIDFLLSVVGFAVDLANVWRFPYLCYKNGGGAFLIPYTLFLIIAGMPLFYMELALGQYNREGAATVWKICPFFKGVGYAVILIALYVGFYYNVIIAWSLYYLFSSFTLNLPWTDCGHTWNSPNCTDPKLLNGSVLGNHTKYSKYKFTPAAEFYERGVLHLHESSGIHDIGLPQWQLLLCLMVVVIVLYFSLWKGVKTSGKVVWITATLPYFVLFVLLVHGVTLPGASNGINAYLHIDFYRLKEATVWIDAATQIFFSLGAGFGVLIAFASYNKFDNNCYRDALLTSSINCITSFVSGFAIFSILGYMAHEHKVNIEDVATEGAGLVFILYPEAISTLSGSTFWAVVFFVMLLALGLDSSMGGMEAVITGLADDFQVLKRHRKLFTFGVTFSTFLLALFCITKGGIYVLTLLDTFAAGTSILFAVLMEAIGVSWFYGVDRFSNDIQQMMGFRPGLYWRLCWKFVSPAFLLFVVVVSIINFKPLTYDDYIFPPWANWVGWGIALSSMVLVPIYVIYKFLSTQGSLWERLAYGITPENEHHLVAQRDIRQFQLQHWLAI
SMILES,Ki (NET [3]),Ki (SERT [4]),NET pKi (NET [3]),SERT pKi (SERT [4]),also measured
Cc1ccc(C23CNCC2C3)cc1 (stereo not shown) [bicifadine],–,–,–,–,pKi at SERT (SERT [1]): 7.0; pKi at NET (NET [2]): 6.7
CCN(CC)C(=O)C1(c2ccccc2)CC1CN (stereo not shown) [milnacipran],–,–,–,–,selectivity (measured as pKi) for SERT over NET (SERT [1]): 2.5 fold
"Cc1cc(Cl)ccc1O[C@@H](c1ccco1)[C@H]1CCNC1 [Example 8-2, (S)-3-[(R)-(4-Chloro-2-methylphenoxy)furan-2-yl-methyl]pyrrolidine]",≤ 10000 nM,≤ 10000 nM,–,–,–
Fc1cc(F)c(Cl)c(O[C@@H](c2nccs2)[C@H]2CCNC2)c1Cl [Example 5-8],–,–,≧5.0,≧5.0,–
FC(F)(F)c1cccnc1O[C@@H](c1ccccc1)[C@H]1CCNC1.O=C(O)C(F)(F)F [14-34],–,–,≧5.0,≧7.0,–
Fc1ccc(O[C@@H](c2ccccc2)C2CCNC2)c2ccccc12 (stereo partly shown) [21-9],≤ 100 nM,≤ 100 nM,–,–,–
Clc1cccc(C(Oc2cccc3ccccc23)C2CCNC2)c1 (stereo not shown) [21-5],≤ 100 nM,≤ 100 nM,–,–,–
COc1ccc(O[C@@H](c2ccccc2)[C@H]2CCNC2)cn1.O=C(O)C(F)(F)F [15-31],–,–,≧5.0,≧7.0,–
Cc1ccccc1O[C@@H](c1nccs1)[C@H]1CCNC1 [Example 5-24],–,–,≧5.0,≧7.0,–
Clc1ccc(O[C@@H](c2ccccc2)[C@H]2CCNC2)cn1.O=C(O)C(F)(F)F [15-24],–,–,≧5.0,≧7.0,–
Fc1ncccc1O[C@@H](c1ccccc1)[C@H]1CCNC1.O=C(O)C(F)(F)F [15-8],–,–,≧7.0,≧7.0,–
Fc1cc(F)c(Cl)c(O[C@H](c2cnccn2)[C@H]2CCNC2)c1Cl [10-2],≤ 10000 nM,≤ 10000 nM,–,–,–
Cc1cccc(O[C@@H](c2ncco2)[C@H]2CCNC2)c1 [6-46],≤ 10000 nM,≤ 10000 nM,–,–,–
"Fc1ccc(F)c(O[C@H](c2cncc(Cl)c2)[C@H]2CCNC2)c1Cl [Example 2-7, 3-Chloro-5-[(S)-(2-chloro-3,6-difluorophenoxy)-(S)-pyrrolidin-3-yl-methyl]-pyridine]",≤ 10000 nM,≤ 100 nM,–,–,–
COc1cc(Cl)ccc1O[C@@H](c1ncco1)[C@H]1CCNC1 [6-39],–,–,≧7.0,≧7.0,–
Cc1c(O[C@@H](c2ccccc2)[C@H]2CCNC2)ccnc1Cl.O=C(O)C(F)(F)F [16-1],–,–,≧5.0,≧7.0,–
Cc1cc(Cl)c(O[C@H](c2nccs2)[C@H]2CCNC2)c(Cl)c1 [Example 5-14],–,–,≧5.0,≧7.0,–
Cc1ccc(O[C@@H](c2ncco2)[C@H]2CCNC2)cc1 [6-48],≤ 100 nM,≤ 100 nM,–,–,–
Fc1cc(F)c(O[C@@H](c2ccccc2)[C@H]2CCNC2)nc1F.O=C(O)C(F)(F)F [14-1],–,–,≧5.0,≧7.0,–
COc1cccnc1O[C@@H](c1ccccc1)[C@H]1CCNC1.O=C(O)C(F)(F)F [14-39],–,–,≧5.0,≧7.0,–
"Clc1cc(Cl)cc(O[C@H](c2ccco2)[C@H]2CCNC2)c1 [Example 8-4, (S)-3-[(S)-(3,5-Dichlorophenoxy)furan-2-yl-methyl]pyrrolidine]",≤ 100 nM,≤ 100 nM,–,–,–
Fc1c(Cl)nc(O[C@@H](c2ccccc2)[C@H]2CCNC2)c(F)c1Cl.O=C(O)C(F)(F)F [14-6],–,–,≧7.0,≧7.0,–

SMILES,Ki (NET [3]),Ki (SERT [4]),NET pKi (NET [3]),SERT pKi (SERT [4]),also measured
Fc1cccc(C(Oc2cccc3ccccc23)C2CCNC2)c1 (stereo not shown) [21-4],≤ 100 nM,≤ 100 nM,–,–,–
Fc1cc(Cl)cc(F)c1OC(c1ncco1)C1CCNC1 (stereo not shown) [6-13],–,–,≧7.0,≧7.0,–
"Cc1cc(Cl)c(OC(c2nccs2)C2CCNC2)c(Cl)c1 [Example 5-13, 2-[(R)-(2,6-Dichloro-4-methylphenoxy)-((S)-pyrrolidin-3-yl-methyl]thiazole]",≤ 10000 nM,≤ 10000 nM,–,–,–
Clc1cccc(O[C@@H](c2ncco2)[C@H]2CCNC2)c1Cl.O=C(O)C(F)(F)F [6-49],–,–,≧7.0,≧7.0,–
FC(F)(F)c1ccc(O[C@@H](c2ccccc2)[C@H]2CCNC2)nc1.O=C(O)C(F)(F)F [14-23],–,–,≧5.0,≧7.0,–
Cc1ccccc1O[C@H](c1nccs1)[C@H]1CCNC1 [Example 5-25],–,–,≧7.0,≧7.0,–
FC(F)(F)c1ccc(O[C@H](c2ccccc2)[C@@H]2CCNC2)nc1.O=C(O)C(F)(F)F [14-24],–,–,≧5.0,≧7.0,–
Fc1cc(F)c(F)c(O[C@@H](c2nccs2)[C@H]2CCNC2)c1F [Example 5-3],–,–,≧5.0,≧5.0,–
"Fc1cc(Cl)cc(Cl)c1OC(c1cncc(Cl)c1)C1CCNC1 [Example 2-27, 3-Chloro-5-[(R)-(2,4-dichloro-6-fluorophenoxy)-(S)-pyrrolidin-3-yl-methy1]-pyridine]",≤ 100 nM,≤ 100 nM,–,–,–
"COc1ccccc1O[C@H](c1cncc(F)c1)[C@H]1CCNC1 [Example 2-63, 3-Fluoro-5-[(S)-(2-methoxyphenoxy)-(S)-pyrrolidin-3-yl-methyl]pyridine]",≤ 10000 nM,≤ 10000 nM,–,–,–
Fc1cc(Cl)ccc1O[C@@H](c1ncco1)[C@H]1CCNC1.O=C(O)C(F)(F)F [6-31],–,–,≧7.0,≧7.0,–
Fc1ccc(O[C@@H](c2ccccc2)[C@H]2CCNC2)nc1.O=C(O)C(F)(F)F [14-29],–,–,≧7.0,≧7.0,–
Cc1cc(Cl)c(O[C@@H](c2ncco2)[C@H]2CCNC2)c(Cl)c1.O=C(O)C(F)(F)F [6-12],–,–,≧5.0,≧7.0,–
"Cc1cc(Cl)c(O[C@H](c2cncc(Cl)c2)[C@@H]2CCNC2)c(Cl)c1 [Example 2-28, 3-Chloro-5-[(R)-(2,6-dichloro-4-methylphenoxy)-(S)-pyrrolidin-3-yl-methy1]-pyridine]",–,–,≧7.0,≧7.0,–
FC(F)(F)c1cc(Cl)ccc1O[C@@H](c1ncco1)[C@H]1CCNC1.O=C(O)C(F)(F)F [6-18],–,–,≧7.0,≧7.0,–
Fc1ccc(F)c(O[C@H](c2cnccn2)[C@H]2CCNC2)c1Cl [10-4],≤ 10000 nM,≤ 100 nM,–,–,–
Cc1ccccc1C(Oc1cccc2ccccc12)C1CCNC1 (stereo not shown) [21-3],≤ 100 nM,≤ 100 nM,–,–,–
"Cc1ccc(F)c(OC(c2nccs2)C2CCNC2)c1Cl [Example 5-18, 2-[(R)-(2-Chloro-6-fluoro-3-methylphenoxy)-((S)-pyrrolidin-3-yl-methyl]thiazole]",≤ 100 nM,≤ 100 nM,–,–,–
"Fc1cc(Cl)c(OC(c2nccs2)C2CCNC2)c(Cl)c1 [Example 5-11, 2-[((S)-(2,6-Dichloro-4-fluorophenoxy)-((S)-pyrrolidin-3-yl-methyl]thiazole]",–,≤ 100 nM,≧5.0,–,–
c1ccc(C(Oc2ccccn2)C2CCNC2)cc1 (stereo not shown) [14-40],≤ 100 nM,≤ 10000 nM,–,–,–
COc1ccccc1O[C@H](c1cnccn1)[C@H]1CCNC1 [10-8],≤ 10000 nM,≤ 10000 nM,–,–,–
